{"source": "paper PMC9234961", "about": "(Journal of Medicinal Chemistry, 2022)", "key": {"kinases (468) [1]": {"target": "kinases (468) (Homo sapiens, UniProt P19525)", "conditions": "PRKR (EIF2AK2); 1000 nM"}, "kinases (468) [2]": {"target": "kinases (468) (Homo sapiens, UniProt P25098)", "conditions": "GRK2 (ADRBK1); 1000 nM"}, "kinases (468) [3]": {"target": "kinases (468) (Homo sapiens, UniProt O43318)", "conditions": "kinase TAK1 (Entrez MAP3K7); compound concentration 1000 nM"}, "kinases (468) [4]": {"target": "kinases (468) (Homo sapiens, UniProt Q92772)", "conditions": "CDKL2; 1000 nM"}, "kinases (468) [5]": {"target": "kinases (468) (Homo sapiens, UniProt P10721, V559D/V654A)", "conditions": "KIT(V559D,V654A); 1000 nM"}, "kinases (468) [6]": {"target": "kinases (468) (Homo sapiens, UniProt Q56UN5)", "conditions": "kinase YSK4 (Entrez MAP3K19); compound concentration 1000 nM"}, "kinases (468) [7]": {"target": "kinases (468) (Homo sapiens, UniProt Q6ZN16)", "conditions": "MAP3K15; 1000 nM"}, "kinases (468) [8]": {"target": "kinases (468) (Homo sapiens, UniProt P35590)", "conditions": "kinase TIE1 (Entrez TIE1); compound concentration 1000 nM"}, "kinases (468) [9]": {"target": "kinases (468) (Homo sapiens, UniProt P00533, L858R)", "conditions": "EGFR(L858R); 1000 nM"}, "kinases (468) [10]": {"target": "kinases (468) (Homo sapiens, UniProt Q15746)", "conditions": "MYLK; 1000 nM"}, "kinases (468) [11]": {"target": "kinases (468) (Homo sapiens, UniProt Q8IY84)", "conditions": "NIM1 (MGC42105); 1000 nM"}, "kinases (468) [12]": {"target": "kinases (468) (Homo sapiens, UniProt P00519, F317I)", "sequence (P00519 whole entry F317I)": "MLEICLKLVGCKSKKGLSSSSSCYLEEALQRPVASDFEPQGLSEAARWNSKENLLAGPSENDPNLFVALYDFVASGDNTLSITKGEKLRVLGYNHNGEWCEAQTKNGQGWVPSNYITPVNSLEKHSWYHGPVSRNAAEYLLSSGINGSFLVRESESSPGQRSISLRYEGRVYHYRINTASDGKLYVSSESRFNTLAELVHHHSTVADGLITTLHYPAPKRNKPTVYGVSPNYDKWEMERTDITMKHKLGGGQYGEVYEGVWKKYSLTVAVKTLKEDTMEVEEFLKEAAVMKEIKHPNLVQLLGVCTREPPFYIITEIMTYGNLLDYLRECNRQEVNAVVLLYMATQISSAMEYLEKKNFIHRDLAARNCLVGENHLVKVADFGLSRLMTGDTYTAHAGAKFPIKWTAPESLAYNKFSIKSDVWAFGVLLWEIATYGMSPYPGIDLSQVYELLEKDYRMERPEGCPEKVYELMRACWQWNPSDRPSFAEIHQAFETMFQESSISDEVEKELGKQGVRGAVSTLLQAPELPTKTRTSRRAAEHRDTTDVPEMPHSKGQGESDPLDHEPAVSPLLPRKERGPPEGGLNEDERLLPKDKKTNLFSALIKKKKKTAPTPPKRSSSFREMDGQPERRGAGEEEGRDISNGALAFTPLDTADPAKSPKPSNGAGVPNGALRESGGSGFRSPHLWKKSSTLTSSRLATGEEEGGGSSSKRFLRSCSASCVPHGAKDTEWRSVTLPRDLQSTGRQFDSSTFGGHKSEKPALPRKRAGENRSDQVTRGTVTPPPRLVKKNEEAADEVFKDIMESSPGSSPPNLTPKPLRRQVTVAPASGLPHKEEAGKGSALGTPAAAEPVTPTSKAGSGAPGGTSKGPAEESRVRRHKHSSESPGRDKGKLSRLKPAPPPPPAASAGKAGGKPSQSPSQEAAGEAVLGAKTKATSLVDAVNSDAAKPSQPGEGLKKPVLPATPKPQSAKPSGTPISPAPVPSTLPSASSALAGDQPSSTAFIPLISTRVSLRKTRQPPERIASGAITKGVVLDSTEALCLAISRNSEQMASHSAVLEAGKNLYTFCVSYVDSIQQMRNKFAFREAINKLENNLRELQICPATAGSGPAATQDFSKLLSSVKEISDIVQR", "conditions": "1000 nM"}, "kinases (468) [13]": {"target": "kinases (468) (Homo sapiens, UniProt Q99558)", "conditions": "NIK (MAP3K14); 1000 nM"}, "kinases (468) [14]": {"target": "kinases (468) (Homo sapiens, UniProt Q15208)", "sequence (Q15208 whole entry)": "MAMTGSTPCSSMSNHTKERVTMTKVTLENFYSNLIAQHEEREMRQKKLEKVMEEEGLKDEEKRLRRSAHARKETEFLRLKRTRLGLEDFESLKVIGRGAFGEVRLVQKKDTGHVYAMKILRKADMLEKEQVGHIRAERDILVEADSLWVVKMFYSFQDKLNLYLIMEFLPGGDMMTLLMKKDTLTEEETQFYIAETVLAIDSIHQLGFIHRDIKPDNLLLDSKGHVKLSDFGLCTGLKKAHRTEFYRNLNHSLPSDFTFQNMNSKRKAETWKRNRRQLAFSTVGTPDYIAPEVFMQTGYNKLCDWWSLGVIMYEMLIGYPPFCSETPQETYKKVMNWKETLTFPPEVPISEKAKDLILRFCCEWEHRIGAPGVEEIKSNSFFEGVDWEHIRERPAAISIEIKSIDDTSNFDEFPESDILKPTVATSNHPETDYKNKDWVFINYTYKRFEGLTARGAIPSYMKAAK", "conditions": "NDR1 (STK38); 1000 nM"}, "kinases (468) [15]": {"target": "kinases (468) (Homo sapiens, UniProt P10721, D816H)", "sequence (P10721 26-976 D816H)": "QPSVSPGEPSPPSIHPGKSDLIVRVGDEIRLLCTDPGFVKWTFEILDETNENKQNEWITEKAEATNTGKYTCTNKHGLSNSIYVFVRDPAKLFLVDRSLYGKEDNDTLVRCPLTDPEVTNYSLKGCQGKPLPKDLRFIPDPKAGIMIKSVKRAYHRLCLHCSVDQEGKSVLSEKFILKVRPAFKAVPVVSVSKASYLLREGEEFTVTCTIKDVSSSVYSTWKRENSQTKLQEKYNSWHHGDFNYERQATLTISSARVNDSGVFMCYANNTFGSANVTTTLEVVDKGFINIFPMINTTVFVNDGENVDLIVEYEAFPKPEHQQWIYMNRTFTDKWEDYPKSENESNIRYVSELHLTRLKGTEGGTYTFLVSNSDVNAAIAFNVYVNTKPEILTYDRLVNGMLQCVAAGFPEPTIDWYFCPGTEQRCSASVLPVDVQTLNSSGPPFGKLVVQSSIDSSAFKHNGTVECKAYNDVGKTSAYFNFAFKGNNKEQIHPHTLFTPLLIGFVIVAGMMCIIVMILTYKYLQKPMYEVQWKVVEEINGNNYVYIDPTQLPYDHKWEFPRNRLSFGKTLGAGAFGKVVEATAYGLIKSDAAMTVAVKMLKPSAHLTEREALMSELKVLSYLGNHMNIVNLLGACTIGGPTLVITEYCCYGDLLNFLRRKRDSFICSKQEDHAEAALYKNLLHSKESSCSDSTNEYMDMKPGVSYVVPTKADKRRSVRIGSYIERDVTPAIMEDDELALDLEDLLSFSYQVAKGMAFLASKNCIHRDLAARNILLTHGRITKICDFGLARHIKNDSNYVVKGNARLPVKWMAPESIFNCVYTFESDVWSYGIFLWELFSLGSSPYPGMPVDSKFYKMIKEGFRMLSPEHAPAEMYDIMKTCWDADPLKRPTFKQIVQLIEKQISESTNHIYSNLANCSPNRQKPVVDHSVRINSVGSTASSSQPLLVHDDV", "conditions": "KIT(D816H); 1000 nM"}, "kinases (468) [16]": {"target": "kinases (468) (Homo sapiens, UniProt O60331)", "conditions": "PIP5K1C; 1000 nM"}, "kinases (468) [17]": {"target": "kinases (468) (Homo sapiens, UniProt P37023)", "sequence (P37023 22-503)": "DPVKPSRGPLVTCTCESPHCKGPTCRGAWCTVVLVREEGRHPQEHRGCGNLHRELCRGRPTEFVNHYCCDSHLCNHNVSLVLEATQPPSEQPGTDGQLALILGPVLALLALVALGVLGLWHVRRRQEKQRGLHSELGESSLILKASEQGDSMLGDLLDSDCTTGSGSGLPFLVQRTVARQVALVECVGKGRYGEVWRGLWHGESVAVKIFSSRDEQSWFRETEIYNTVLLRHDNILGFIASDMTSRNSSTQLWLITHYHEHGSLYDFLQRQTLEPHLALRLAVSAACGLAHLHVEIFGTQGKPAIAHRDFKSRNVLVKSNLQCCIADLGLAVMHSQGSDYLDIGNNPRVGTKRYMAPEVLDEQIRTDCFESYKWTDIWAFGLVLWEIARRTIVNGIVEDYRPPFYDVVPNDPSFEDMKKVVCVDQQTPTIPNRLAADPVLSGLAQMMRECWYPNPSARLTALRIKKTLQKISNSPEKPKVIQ", "conditions": "ACVRL1; 1000 nM"}, "kinases (468) [18]": {"target": "kinases (468) (Homo sapiens, UniProt P42336, E542K)", "conditions": "PIK3CA(E542K); 1000 nM"}, "kinases (468) [19]": {"target": "kinases (468) (Homo sapiens, UniProt P35626)", "conditions": "GRK3 (ADRBK2); 1000 nM"}, "kinases (468) [20]": {"target": "kinases (468) (Homo sapiens, UniProt P11309)", "sequence (P11309 whole entry)": "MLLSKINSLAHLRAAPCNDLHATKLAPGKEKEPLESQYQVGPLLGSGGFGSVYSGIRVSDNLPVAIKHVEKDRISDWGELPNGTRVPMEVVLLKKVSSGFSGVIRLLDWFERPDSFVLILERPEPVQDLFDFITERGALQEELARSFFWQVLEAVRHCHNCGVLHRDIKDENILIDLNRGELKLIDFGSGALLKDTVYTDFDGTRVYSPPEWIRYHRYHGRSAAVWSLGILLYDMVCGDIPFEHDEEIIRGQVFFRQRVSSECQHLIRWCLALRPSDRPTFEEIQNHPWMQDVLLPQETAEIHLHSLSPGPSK", "conditions": "PIM1; 1000 nM"}, "kinases (468) [21]": {"target": "kinases (468) (Homo sapiens, UniProt O00141)", "conditions": "kinase SGK (Entrez SGK1); compound concentration 1000 nM"}, "kinases (468) [22]": {"target": "kinases (468) (Homo sapiens, UniProt O00750)", "conditions": "PIK3C2B; 1000 nM"}, "kinases (468) [23]": {"target": "kinases (468) (Homo sapiens, UniProt Q13153)", "conditions": "PAK1; 1000 nM"}, "kinases (468) [24]": {"target": "kinases (468) (Homo sapiens, UniProt O43683)", "sequence (O43683 whole entry)": "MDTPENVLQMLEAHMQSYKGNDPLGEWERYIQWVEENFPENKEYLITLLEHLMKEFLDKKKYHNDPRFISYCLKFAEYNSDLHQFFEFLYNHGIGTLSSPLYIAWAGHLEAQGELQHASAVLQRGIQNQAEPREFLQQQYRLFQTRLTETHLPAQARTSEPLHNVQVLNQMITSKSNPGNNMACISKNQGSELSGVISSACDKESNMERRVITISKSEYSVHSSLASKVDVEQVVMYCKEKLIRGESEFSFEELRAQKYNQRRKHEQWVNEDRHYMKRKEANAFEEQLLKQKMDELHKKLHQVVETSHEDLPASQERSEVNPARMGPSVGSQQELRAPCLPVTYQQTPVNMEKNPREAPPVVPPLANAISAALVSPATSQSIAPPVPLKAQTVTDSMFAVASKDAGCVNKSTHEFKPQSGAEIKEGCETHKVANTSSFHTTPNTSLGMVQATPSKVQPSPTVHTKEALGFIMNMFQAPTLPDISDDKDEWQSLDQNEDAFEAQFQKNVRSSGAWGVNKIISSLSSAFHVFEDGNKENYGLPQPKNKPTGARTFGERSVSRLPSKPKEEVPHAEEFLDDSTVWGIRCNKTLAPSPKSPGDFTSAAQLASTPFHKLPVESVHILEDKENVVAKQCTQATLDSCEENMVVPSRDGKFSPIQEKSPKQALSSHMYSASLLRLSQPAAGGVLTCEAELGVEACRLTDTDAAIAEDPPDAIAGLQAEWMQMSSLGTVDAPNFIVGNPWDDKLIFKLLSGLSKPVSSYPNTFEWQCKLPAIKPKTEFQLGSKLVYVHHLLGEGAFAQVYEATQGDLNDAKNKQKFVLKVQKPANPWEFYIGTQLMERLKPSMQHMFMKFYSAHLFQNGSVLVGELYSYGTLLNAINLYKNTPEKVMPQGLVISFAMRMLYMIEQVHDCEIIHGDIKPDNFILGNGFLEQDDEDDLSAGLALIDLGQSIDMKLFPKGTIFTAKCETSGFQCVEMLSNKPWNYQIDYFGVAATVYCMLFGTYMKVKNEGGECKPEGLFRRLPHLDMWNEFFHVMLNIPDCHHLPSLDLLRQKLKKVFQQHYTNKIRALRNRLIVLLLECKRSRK", "conditions": "BUB1; 1000 nM"}, "kinases (468) [25]": {"target": "kinases (468) (Homo sapiens, UniProt P00533, T790M)", "conditions": "EGFR(T790M); 1000 nM"}, "kinases (468) [26]": {"target": "kinases (468) (Homo sapiens, UniProt O96017)", "conditions": "CHEK2; 1000 nM"}, "[27]": {"assay": "Microsomal clearance assay (RLM)", "assay_type": "in vitro ADME", "conditions": "rat liver microsomes, 1 μM compound", "description": "6. Supplementary experimental: in vitro DMPK assays\n6.1 Microsomal clearance assay\nMicrosomal clearance was determined in female CD1 mice, female Sprague–Dawley rats, and mixed gender human liver microsomes obtained from BioIVT (Peterborough, U.K.) following incubation of 1 μM compound at 37 °C in 0.5 mg/mL microsomal protein, 3 mmol/L MgCl2, 1 mmol/L NADPH, 2.5 mmol/L and 10 mmol/L phosphate buffer (pH 7.4) (all purchased from Sigma-Aldrich, Gillingham, U.K). Reactions were started by addition of the cofactors following 10 min preincubation of microsomes with test compound and were terminated at −1, 0, 5, 10, 15, and 30 min with three volumes of ice-cold methanol containing internal standard. Samples were centrifuged at 2800g for 30 min at 4 °C and the supernatants analyzed.\nControl incubations were prepared as above with omission of cofactors. Compound measurements were […]\nseparation with a 3 min gradient of 0.1% formic acid in methanol on a Kinetex C18, 50 × 2.1 mm 2.6 μm UPLC column (Phenomenex, Macclesfield, UK). […]"}, "NET": {"target": "NET (Homo sapiens, UniProt P23975)", "sequence (P23975 whole entry)": "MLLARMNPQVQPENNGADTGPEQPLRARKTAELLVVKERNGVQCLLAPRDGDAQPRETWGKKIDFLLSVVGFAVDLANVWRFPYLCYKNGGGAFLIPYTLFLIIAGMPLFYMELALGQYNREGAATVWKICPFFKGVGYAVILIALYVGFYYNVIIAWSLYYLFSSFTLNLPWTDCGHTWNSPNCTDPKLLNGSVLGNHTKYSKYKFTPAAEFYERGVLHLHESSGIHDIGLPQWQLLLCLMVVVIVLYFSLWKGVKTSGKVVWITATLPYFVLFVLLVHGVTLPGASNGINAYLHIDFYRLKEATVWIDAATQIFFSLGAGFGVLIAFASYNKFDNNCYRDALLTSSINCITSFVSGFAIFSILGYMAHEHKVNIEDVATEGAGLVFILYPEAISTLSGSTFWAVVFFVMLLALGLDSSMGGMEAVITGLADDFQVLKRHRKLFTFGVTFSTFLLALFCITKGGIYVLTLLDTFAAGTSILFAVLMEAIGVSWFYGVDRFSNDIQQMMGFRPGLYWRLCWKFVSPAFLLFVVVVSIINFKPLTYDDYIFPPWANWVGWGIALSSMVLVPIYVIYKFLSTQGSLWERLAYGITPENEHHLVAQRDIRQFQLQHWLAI", "assay": "SAFETYScan Transporter, Blocker", "assay_type": "cell-based", "excerpt": "Supplement jm1c02175_si_002.xlsx, sheet \"SAFETYScan\" | column: RC50 (uM); Max Response"}}, "note": "Read-outs that look alike come from different tables or passages of the source."}
{"smiles": "C[C@H]1C[C@@H](O)CN(c2ncc(Cl)c(Nc3ccc4c(c3)c3c(c(=O)n4C)OCC(F)(F)[C@H](C4CC4)N3)n2)C1", "note": "[CCT373566_9A]", "values": [{"measurement": "Percent Control", "setting": "kinases (468) [1]", "result": 95, "unit": "%"}, {"measurement": "Percent Control", "setting": "kinases (468) [2]", "result": 41, "unit": "%"}, {"measurement": "Percent Control", "setting": "kinases (468) [3]", "result": 100, "unit": "%"}, {"measurement": "Percent Control", "setting": "kinases (468) [4]", "result": 100, "unit": "%"}, {"measurement": "Percent Control", "setting": "kinases (468) [5]", "result": 98, "unit": "%"}, {"measurement": "Percent Control", "setting": "kinases (468) [6]", "result": 100, "unit": "%"}, {"measurement": "Percent Control", "setting": "kinases (468) [7]", "result": 99, "unit": "%"}, {"measurement": "Percent Control", "setting": "kinases (468) [8]", "result": 100, "unit": "%"}, {"measurement": "Percent Control", "setting": "kinases (468) [9]", "result": 100, "unit": "%"}, {"measurement": "Percent Control", "setting": "kinases (468) [10]", "result": 91, "unit": "%"}, {"measurement": "Percent Control", "setting": "kinases (468) [11]", "result": 90, "unit": "%"}, {"measurement": "Percent Control", "setting": "kinases (468) [12]; ABL1(F317I)-nonphosphorylated", "result": 95, "unit": "%"}, {"measurement": "Percent Control", "setting": "kinases (468) [12]; ABL1(F317I)-phosphorylated", "result": 90, "unit": "%"}, {"measurement": "Percent Control", "setting": "kinases (468) [13]", "result": 83, "unit": "%"}, {"measurement": "Percent Control", "setting": "kinases (468) [14]", "result": 100, "unit": "%"}, {"measurement": "Percent Control", "setting": "kinases (468) [15]", "result": 87, "unit": "%"}, {"measurement": "Percent Control", "setting": "kinases (468) [16]", "result": 91, "unit": "%"}, {"measurement": "Percent Control", "setting": "kinases (468) [17]", "result": 96, "unit": "%"}, {"measurement": "Percent Control", "setting": "kinases (468) [18]", "result": 83, "unit": "%"}, {"measurement": "Percent Control", "setting": "kinases (468) [19]", "result": 100, "unit": "%"}, {"measurement": "Percent Control", "setting": "kinases (468) [20]", "result": 100, "unit": "%"}, {"measurement": "Percent Control", "setting": "kinases (468) [21]", "result": 98, "unit": "%"}, {"measurement": "Percent Control", "setting": "kinases (468) [22]", "result": 100, "unit": "%"}, {"measurement": "Percent Control", "setting": "kinases (468) [23]", "result": 100, "unit": "%"}, {"measurement": "Percent Control", "setting": "kinases (468) [24]", "result": 94, "unit": "%"}, {"measurement": "Percent Control", "setting": "kinases (468) [25]", "result": 100, "unit": "%"}, {"measurement": "Percent Control", "setting": "kinases (468) [26]", "result": 99, "unit": "%"}]}
{"smiles": "C[C@H]1C[C@@H](O)CN(c2ncc(Cl)c(Nc3ccc4c(c3)c3c(c(=O)n4C)OCC(F)(F)[C@H](C4CC4)N3)n2)C1", "note": "[12a CCT373566, (S)-10-((5-Chloro-2-((3R,5S)-3-hydroxy-5-methylpiperidin-1-yl)pyrimidin-4-yl)amino)-2-cyclopropyl-3,3-difluoro-7-methyl-1,2,3,4-tetrahydro-[1,4]oxazepino[2,3-c]quinolin-6(7H)-one]", "values": [{"measurement": "microsomal CLint at 0.5 h, 1 µM", "setting": "[27]; female, Sprague-Dawley, pH 7.4", "result": 3, "unit": "µL/min/mg"}, {"measurement": "CLint (RLM)", "setting": "[27]", "result": "low clearance"}, {"measurement": "Emax", "setting": "NET; read-out: Max Response", "result": 8.36, "unit": "%"}, {"measurement": "IC50", "setting": "NET; read-out: RC50 (IC50)", "result": "> 10", "unit": "µM"}]}
